Data reported in patent publication US8115017B2, “C-phenyl 1-thioglucitol compound” (Taisho Pharmaceutical Co., Ltd, priority 2006, dated 2012).

Assays:
[1] = molecular target: T1, human SGLT2 (Homo sapiens, UniProt P31639); experiment: Inhibition test for sodium-dependent sugar uptake in CHO-K1 cells stably expressing human SGLT2; assay type: cell-based; conditions: [14C]methyl α-D-glucopyranoside uptake, 37° C., 1 hour, read-out: human SGLT2 IC50 (50% inhibition of sugar uptake)
T1 construct: expressed in transfected cells; host or cells: CHO-K1
T1 sequence (P31639 1-672): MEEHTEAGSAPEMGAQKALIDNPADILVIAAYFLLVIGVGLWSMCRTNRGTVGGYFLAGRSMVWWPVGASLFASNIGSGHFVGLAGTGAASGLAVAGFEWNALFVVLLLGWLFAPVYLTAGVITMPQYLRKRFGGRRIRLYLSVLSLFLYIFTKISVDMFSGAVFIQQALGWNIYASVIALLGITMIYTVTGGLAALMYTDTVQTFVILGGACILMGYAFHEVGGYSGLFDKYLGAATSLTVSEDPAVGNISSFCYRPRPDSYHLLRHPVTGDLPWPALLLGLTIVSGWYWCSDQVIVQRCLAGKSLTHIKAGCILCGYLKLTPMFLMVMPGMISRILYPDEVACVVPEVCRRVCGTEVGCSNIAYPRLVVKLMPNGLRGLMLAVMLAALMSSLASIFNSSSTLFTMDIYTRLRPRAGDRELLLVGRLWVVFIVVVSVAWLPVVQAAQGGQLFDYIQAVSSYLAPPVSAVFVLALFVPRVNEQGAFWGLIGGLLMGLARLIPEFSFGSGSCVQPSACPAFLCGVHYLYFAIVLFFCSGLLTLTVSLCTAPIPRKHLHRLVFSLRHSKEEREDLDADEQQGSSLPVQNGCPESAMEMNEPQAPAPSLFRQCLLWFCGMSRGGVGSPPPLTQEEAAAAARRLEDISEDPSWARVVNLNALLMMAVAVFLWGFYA
Experimental: (§1) A human SGLT1 sequence (NM_000343) was reverse-transcribed and amplified from human small intestine mRNA, and then introduced into pCMV-tag5A (Stratagene). Likewise, a human SGLT2 sequence (NM_003041) was prepared from human kidney mRNA in the same manner and introduced into pcDNA3.1+hygro (Invitrogen). The individual cloned sequences were confirmed to be identical with the sequences reported.
(§2) The human SGLT1 and human SGLT2 expression vectors were each transfected into CHO-K1 cells using lipofectamine 2000 (Invitrogen). The cells were cultured in the presence of 500 μg/mL geneticin (SGLT1) or hygromycin B (SGLT2) to select resistant strains and specific activity of sugar uptake in the system shown below was used as an indicator to obtain SGLT-expressing cells.
(§3) The cells stably expressing human SGLT1 or human SGLT2 were used for an inhibition test of sodium-dependent glucose uptake activity.
(§4) Pretreatment buffer (140 mM choline chloride, 2 mM KCl, 1 mM CaCl2, 1 mM MgCl2, 10 mM HEPES/5 mM Tris, pH 7.4) was added in a volume of 200 μL to human SGLT1-expressing cells and 2 mL to human SGLT2-expressing cells, followed by incubation for 20 minutes. The pretreatment buffer was removed and replaced with uptake buffer containing a test compound (1 mM methyl α-D-glucopyranoside (containing [^14C]methyl α-D-glucopyranoside), 145 mM NaCl, 2 mM KCl, 1 mM CaCl2, 1 mM MgCl2, 10 mM HEPES/5 mM Tris, pH 7.4) in a volume of 75 μL for SGLT1 and 200 μL for SGLT2. Uptake reaction was performed at 37° C. for 30 minutes (SGLT1) or 1 hour (SGLT2). After the reaction, the cells were washed twice with washing buffer (10 mM methyl α-D-glucopyranoside, 140 mM choline chloride, 2 mM KCl, 1 mM CaCl2, 1 mM MgCl2, 10 mM HEPES/5 mM Tris, pH 7.4) in a volume of 200 μL for SGLT1 and 2 mL for SGLT2, and then dissolved in a 0.2 M NaOH solution (75 μL for SGLT1 and 400 μL for SGLT2). A liquid scintillator (Perkin Elmer) was added and mixed well with each sample, followed by measurement of radioactivity using a microBETA for SGLT1 or a liquid scintillation counter for SGLT2 (Beckman Coulter). For the control group, uptake buffer containing no test compound was prepared. Moreover, another uptake buffer containing choline chloride instead of NaCl was also prepared for basal uptake.
(§5) For determination of IC50 values, test compounds prepared at 6 appropriate concentrations were used and their concentrations required for 50% inhibition of the amount of sugar uptake (IC50 values) were calculated relative to the amount of sugar uptake in the control group (100%).

[2] = tested on: Streptozotocin-induced diabetic model rats; experiment: Oral glucose tolerance test in streptozotocin-induced diabetic model rats (hypoglycemic effect); assay type: in vivo, rat; conditions: STZ diabetic SD/IGS rats; 1 mg/kg oral; glucose 2 g/kg oral; decrease in blood glucose ΔAUC 0-1 h relative to control group
Experimental: SD/IGS rats at 7 weeks of age (male, Charles River Laboratories Japan Inc.) were fasted for about 16 hours and then injected with 50 mg/kg streptozotocin (STZ) via the tail vein under ether anesthesia to prepare diabetic model rats. Similarly, another group of SD/IGS rats was injected with 1.25 mmol/L citric acid in physiological saline (1 mL/kg) via the tail vein under ether anesthesia to prepare normal control rats. At one week (8 weeks of age) after injection of STZ or 1.25 mmol/L citric acid in physiological saline, the rats were provided for an oral glucose tolerance test.
After the rats were fasted for about 16 hours, drug groups were each orally administered with a drug (1 mg/kg) suspended in a 0.5% aqueous carboxymethylcellulose (CMC) solution, while the control group was orally administered with a 0.5% aqueous CMC solution alone. At 5 minutes after drug administration, a glucose solution (2 g/kg) was orally administered and blood was collected at 5 points in total: before drug administration (0 hour) and 0.25, 0.5, 1 and 2 hours after oral administration.
Blood was collected from the orbital venous sinus of each rat under ether anesthesia using a heparin-coated blood collection tube, and centrifuged to separate plasma. Plasma glucose concentrations were quantified by measurement with a Glucose CII-Test Wako (Wako Pure Chemical Industries, Ltd., Japan). To determine the intensity of hypoglycemic effect, blood glucose levels measured between 0 and 1 hour in each drug group were analyzed by the trapezoidal method to calculate the area under the blood glucose-time curve (AUC), followed by basal subtraction to obtain a blood glucose increment (ΔAUC).

[3] = molecular target: T2, human SGLT1 (Homo sapiens, UniProt P13866); experiment: Inhibition test for sodium-dependent sugar uptake in CHO-K1 cells stably expressing human SGLT1; assay type: cell-based; conditions: [14C]methyl α-D-glucopyranoside uptake, 37° C., 30 minutes, read-out: human SGLT1 IC50 (50% inhibition of sugar uptake)
T2 construct: expressed in transfected cells; host or cells: CHO-K1
T2 sequence (P13866 1-664): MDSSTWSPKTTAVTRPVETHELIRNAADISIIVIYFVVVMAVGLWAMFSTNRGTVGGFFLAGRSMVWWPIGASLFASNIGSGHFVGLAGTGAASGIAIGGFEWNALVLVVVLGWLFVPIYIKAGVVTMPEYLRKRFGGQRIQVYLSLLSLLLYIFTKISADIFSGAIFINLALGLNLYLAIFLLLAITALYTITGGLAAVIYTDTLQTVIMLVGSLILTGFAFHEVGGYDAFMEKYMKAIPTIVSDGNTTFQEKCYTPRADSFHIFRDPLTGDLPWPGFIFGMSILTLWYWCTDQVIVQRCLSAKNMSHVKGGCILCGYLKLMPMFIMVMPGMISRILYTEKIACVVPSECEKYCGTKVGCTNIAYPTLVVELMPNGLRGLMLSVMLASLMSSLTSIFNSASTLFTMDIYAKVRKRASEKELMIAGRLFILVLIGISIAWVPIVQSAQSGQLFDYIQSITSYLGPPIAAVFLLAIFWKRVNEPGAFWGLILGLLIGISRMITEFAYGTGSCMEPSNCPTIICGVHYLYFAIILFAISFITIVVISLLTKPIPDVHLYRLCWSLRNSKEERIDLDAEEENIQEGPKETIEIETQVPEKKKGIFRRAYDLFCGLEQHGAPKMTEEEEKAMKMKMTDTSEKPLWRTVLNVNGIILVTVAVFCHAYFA
Experimental: as §1, §2, §3, §4, §5

Structure (SMILES)	IC50 [1]	STZ rat-OGTT (2 g/Kg) % inhibition ΔAUC0-1 h (mgh/dL) @1 mg/Kg [2]	IC50 [3]
Cc1cc(O)c([C@@H]2S[C@H](CO)[C@@H](O)[C@H](O)[C@H]2O)cc1Cc1ccc(CCCC(=O)NC(C)(C)CO)cc1 [Example 1, (1S)-1,5-anhydro-1-[2-hydroxy-5-(4-{4-[(2-hydroxy-1,1-dimethylethyl)amino]-4-oxobutyl}benzyl)-4-methylphenyl]-1-thio-D-glucitol]	17 nM	70.4 % inhibition	11 nM
Cc1cc(O)c([C@@H]2S[C@H](CO)[C@@H](O)[C@H](O)[C@H]2O)cc1Cc1ccc(CCCC(=O)NC(C)(CO)CO)cc1 [Example 2, (1S)-1,5-anhydro-1-{2-hydroxy-5-[4-(4-{[2-hydroxy-1-(hydroxymethyl)-1-methylethyl]amino}-4-oxobutyl)benzyl]-4-methylphenyl}-1-thio-D-glucitol]	21 nM	65.4 % inhibition	22 nM
Cc1cc(O)c([C@@H]2S[C@H](CO)[C@@H](O)[C@H](O)[C@H]2O)cc1Cc1ccc(CCCC(=O)NC(CO)(CO)CO)cc1 [Example 3, (1S)-1,5-anhydro-1-{2-hydroxy-5-[4-(4-{[2-hydroxy-1,1-bis(hydroxymethyl)ethyl]amino}-4-oxobutyl)benzyl]-4-methylphenyl}-1-thio-D-glucitol]	31 nM	60.8 % inhibition	35 nM
Cc1cc(O)c([C@@H]2S[C@H](CO)[C@@H](O)[C@H](O)[C@H]2O)cc1Cc1ccc(CCCC(=O)NC(C)(C)C(N)=O)cc1 [Example 4, (1S)-1-[5-(4-{4-[(2-amino-1,1-dimethyl-2-oxoethyl)amino]-4-oxobutyl}benzyl)-2-hydroxy-4-methylphenyl]-1,5-anhydro-1-thio-D-glucitol]	49 nM	66.5 % inhibition	47 nM
Cc1cc(CCCC(=O)NC(C)(C)CO)ccc1Cc1cc([C@@H]2S[C@H](CO)[C@@H](O)[C@H](O)[C@H]2O)c(O)cc1C [Example 5, (1S)-1,5-anhydro-1-[2-hydroxy-5-(4-{4-[(2-hydroxy-1,1-dimethylethyl)amino]-4-oxobutyl}-2-methylbenzyl)-4-methylphenyl]-1-thio-D-glucitol]	99 nM		20 nM
Cc1cc(O)c([C@@H]2S[C@H](CO)[C@@H](O)[C@H](O)[C@H]2O)cc1Cc1ccc(CCCNC(=O)NC(C)(C)CO)cc1 [Example 6, (1S)-1-{5-[4-(3-{[(2-hydroxy-1,1-dimethylethyl)aminocarbonyl]amino}propyl)benzyl]-2-hydroxy-4-methylphenyl}-1,5-anhydro-1-thio-D-glucitol]	32 nM	69.2 % inhibition	22 nM
Cc1cc(O)c([C@@H]2S[C@H](CO)[C@@H](O)[C@H](O)[C@H]2O)cc1Cc1ccc(CCCCC(=O)NC(C)(C)CO)cc1 [Example 8, (1S)-1,5-anhydro-1-[2-hydroxy-5-(4-{5-[(2-hydroxy-1,1-dimethylethyl)amino]-5-oxopentyl}benzyl)-4-methylphenyl]-1-thio-D-glucitol]	38 nM		79 nM
